# Laboratory results taken from patent publication US8404283B2, “Standardized plant extract, process for obtaining the same and uses thereof” (Eurofarma Laboratorios Ltda, priority 2007, dated 2013).
# How the values were obtained:
# Swiss Webster mice [1] = test: abdominal contortion model induced by acetic acid; type: in vivo; conditions: oral administration; for DI50: dose reducing response by 50%, 95% limits; for IM (%): inhibition of number of contortions
# Description: The experimental acetic acid induced abdominal contortion model allows assessment of the antinociceptive activity of various substances that act both at central and peripheral levels. Nociceptive response is induces by the intraperitonal injection of acetic acid (0.6%) diluted in saline solution (0.9%). The abdominal contortions consist in the contraction of the abdominal muscles combined with the extension of one of the rear paws.
# Each analysis was performed using 8 to 10 male animals (Swiss Webster mice) weighing between 25 and 30 g. The dose was calculated individually for each animal with the quantity in mg/kg (mg/1.000 g) of the substance to be administrated being in accordance to its weight. The injected volume of the solutions followed the rule of 0.1 ml/10 g of the animal's weight.
# (§1) Parametric statistical tests were performed on the models described above. The results were submitted to ANOVA variance analysis followed by appropriate post hoc tests. […] The statistical analyses of the results were performed by means of variance analysis followed by the multiple comparison test using the Dunnett method, when appropriate. Values of p<0.05 were considered to indicate significance. The DI50 was estimated by means of individual experiments using GraphPad Instat statistical software.
# Swiss Webster mice [2] = test: formalin induced pain model (Phase I, Phase II, edema); type: in vivo; conditions: oral administration
# Description: This model is more specific than the acetic acid induced abdominal contortion model. It allows the assessment of two distinct types of pain: the pain of neurogenic origin (direct stimulation of the nociceptive neurons) and of inflammatory origin, representing the tonic response to pain, accompanied by an inflammatory response related to the release of chemical inflammation mediators. […] Immediately after the formalin injection, the animals were placed under a glass dome surrounded by mirrors in order to facilitate observation of the ensuing behaviour. Observation commenced immediately, initially timing the reaction to pain during the first 5 minutes after the formalin injection (corresponding to the period of neurogenic pain). Following an interval of 10 minutes, the licking times were recorded for a further 15 minutes (corresponding to the inflammatory pain). Total test time was of 30′.
# At the end of this observation period, the animals were sacrificed by cervical displacement and the rear paws were removed at the tibiotarsal region and weighed on an analytical balance to quantify the edema induced by the formalin. The difference in weight (in mg) between the right paw (injected with formalin) and the left paw (injected with saline) was considered the rate of edema. […] Each analysis was performed using 8 to 10 male animals (Swiss Webster mice) weighing between 25 and 30 g.
# The dose was calculated individually for each animal with the quantity in mg/kg (mg/1.000 g) of the substance to be administrated being in accordance to its weight. The injected volume of the solutions followed the rule of 0.1 ml/10 g of the animal's weight.
# The animals were observed after the intraplantar injection of formalin for a period of 30 minutes. The reaction time (time in which the animal remains licking the injected paw) is then quantified in each of the phases: phase I (neurogenic pain—5 min observation) and phase II (inflammatory pain—15 min observation).
# as §1
# mice = conditions: cited from earlier work
SMILES,DI50 (Swiss Webster mice [1]) [mg/kg],IM (%) (Swiss Webster mice [1]),DI50 (Swiss Webster mice [2]; Edema) [mg/kg],IM (%) (Swiss Webster mice [2]; Edema),DI50 (Swiss Webster mice [2]; Phase I (neurogenic)) [mg/kg],IM (%) (Swiss Webster mice [2]; Phase I (neurogenic)),DI50 (mg/kg) (Swiss Webster mice [2]; Phase II (inflammatory)),IM (%) (Swiss Webster mice [2]; Phase II (inflammatory)),DI50 (mg/kg) (Swiss Webster mice [2]; Phase I (neurogenic)),"analgesic effect on acetic acid induced abdominal contortions (mice; Meyre-Silva et al. 1998, 1999)","analgesia, potency relative to aspirin (mice; Meyre-Silva et al. 1999)"
COc1ccc2c(c1)c(CC(=O)O)c(C)n2C(=O)c1ccc(Cl)cc1 [Indomethacin],189.95,72.0,>300,36.5,>300,7.2,263.42 (239.83-289.35) mg/kg,53.1,,,
CC(=O)Oc1ccccc1C(=O)O [AAS],364.1,64.5,>500,31.7,>500,12.7,408.87 (391.47-427.03) mg/kg,65.7,,,
O=C(O)Cc1ccccc1Nc1c(Cl)cccc1Cl [Diclophenac],443.07,51.6,>500,33.7,,68.8,,82.5,407.48 (357.56-464.37) mg/kg,,
COc1cc2oc(-c3ccc(O)cc3)cc(=O)c2c(O)c1[C@@H]1O[C@H](CO)[C@@H](O)[C@H](O)[C@H]1O [swertisin],,,,,,,,,,did not have an analgesic effect,
COc1cc2oc(-c3ccc(O)cc3)cc(=O)c2c(O)c1[C@@H]1O[C@H](CO)[C@@H](O)[C@H](O)[C@H]1O[C@@H]1O[C@@H](C)[C@H](O)[C@@H](O)[C@H]1O [2″-O-rhamnosylswertisin],,,,,,,,,,,approximately 16 times
